The subject of one assay is pY759-PLCg2. Briefly: Phosphoprotein screen in human whole blood with CBL inhibitor at 10 uM: PLCγ2. The assay is classed as cell-based. Particulars: 1 hr 37° C., human whole blood 8 donors, anti-CD3/CD28 + crosslinker 60 minutes. The protocol:
(§1) To identify proximal biomarkers of CBL-B inhibition in immune cells, a panel of phosphorylated proteins were screened in human whole blood incubated with CBL-B inhibitor and concomitant anti-CD3 and anti-CD28 antibodies. The effect of CBL-B inhibition was assessed across multiple cellular signaling networks.
(§2) Human heparinized whole blood from 8 donors was received after an overnight shipment at 4° C. The blood was plated, treated with CBL inhibitor at 10 uM and incubated at 37° C. for 60 minutes. After incubation, the cells were stimulated with anti-CD3/CD28 followed by a cross-linking antibody (30 μg of goat anti-mouse IgG (H+L) antibody (Invitrogen)). After 60 minutes, the cells were fixed, and stained using surface markers for T cells (CD3^+CD4^+& CD3^+CD8^+) and analyzed by flow cytometry for target phosphorylation of the following markers: pY180/pY511-ITK, pY397-HS1, pY759-PLCg2, pY783-PLCg1, pY525/pY526/pY348-SYK & pY319-Zap70.
(§3) Fold change of each biomarker was calculated with the following example equation: […]
(§4) Whole blood from eight human donors was collected in sodium heparin anti-coagulant treated with 10 μM of Compound 23 for 1 hr at 37° C. […] Fold change of % phosphorylation normalized to DMSO was quantitated in T cells (CD8^+) using flow cytometry is provided in FIGS. 6A-6B.

The subject of another assay is phosphorylated ZAP70. Briefly: Phosphorylated ZAP70 in human CD8+ T cells from whole blood in vitro (flow cytometry). The assay is classed as cell-based. Particulars: T-cell, whole blood from six human donors, 2 hrs 37° C., anti-CD3/anti-CD28 + crosslinker 60 minutes, read-out: Average mean EC50±standard deviation, phosphorylated ZAP70. The method, then: To assess these candidate clinical proximal biomarkers of Cbl-b inhibition on T cells, pharmacodynamic analysis was performed. Whole blood was obtained from human donors and incubated with increasing concentrations of Compound 23. The response to Cbl-b inhibition on phosphorylated HS1, PLCγ2, and ZAP70 was measured in CD8^+ T cells using flow cytometry. This technique is highly quantitative and can measure multiple phosphorylation markers in different cell populations within the same sample.
For pharmacodynamic analysis, whole blood was obtained from six human donors (BioIVT) and used for flow cytometry assays to evaluate phosphorylated biomarkers HS1, PLCγ2, and ZAP70 in CD8^+ T cells.
Whole blood was collected in a collection tube coated with sodium heparin. […]
Stained cells were run on an Attune NxT Acoustic Focusing Flow Cytometer (Thermo Fisher, cat. No. A29004), and data was analyzed using FlowJo (v10.6.1) and GraphPad Prism (v8.00) software. Single lymphocytes were gated for CD8^+ cells (CD45^+/CD8^+) cells, and population frequencies were calculated for each population. The data is quantified by the percent positive. […] As protein becomes phosphorylated the fluorescence increases resulting in a larger fraction of the cells entering that gate. Each population was evaluated for % positive pY759-PLCγ2, pY397-HS1 levels, pY319/Syk (Y352)-ZAP70 levels.
A general note: In flow cytometry, cells or beads pass a laser one at a time.

In the next assay the test system is A20 lymphoma tumor model. Briefly: A20 lymphoma tumor model, anti-tumor activity. The assay is classed as in vivo, mouse. Particulars: dosed at 10, 30 or 60 mg/kg. An excerpt: An elevated percentage of pHS1+CD8+ T cells correlated with potent anti-tumor effects in mouse syngeneic tumor models and defined a biomarker therapeutic range. At this therapeutic range, approximately 50% proximal biomarker pHS1 correlates with the efficacious range.

For a further assay, the system named is pY783-PLCg1. The assay can be described thus: Phosphoprotein screen in human whole blood with CBL inhibitor at 10 uM: PLCγ1. The format is cell-based. Particulars: 1 hr 37° C., human whole blood 8 donors, anti-CD3/CD28 + crosslinker 60 minutes. The method, then:
as §1, §2, §3, §4

As for `C[C@H]1CCCN(Cc2cc3c(c(C(F)(F)F)c2)CN(c2cccc([C@]4(c5nncn5C)C[C@@H](C)C4)c2)C3=O)C1` [Compound 23], the “increased phosphorylation of PLCγ2 compared to DMSO control” value in the assay with pY759-PLCg2 is recorded as 3-4 fold. The EC50 (as a rule, the midpoint of the concentration-response curve) with phosphorylated ZAP70 was found to be 0.12 ± 0.00897 µM. In the assay with A20 lymphoma tumor model, the “median survival time compared to the vehicle control” value is “prolonged median survival time” and the “tumor size compared to the vehicle control” value is recorded as “significantly smaller tumors”. Besides, the “increased phosphorylation of PLCγ1 compared to DMSO control” value with pY783-PLCg1 is given as 2-3 fold.

The values are drawn from patent publication US20230355599A1, “BIOMARKERS FOR CBL, AND COMPOSITIONS AND METHODS FOR THEIR USE” (NURIX THERAPEUTICS, INC., priority 2022, published 2023).
